In patent publication US7511040B2, “Imidazopyrazines as protein kinase inhibitors” (Schering Corporation, priority 2006, dated 2009):
pIC50: −log10 of the molar value.

Experiments:
recombinant Aurora B = target: T1, recombinant Aurora B (Homo sapiens, UniProt Q96GD4); experiment: Aurora B enzyme assay (IMAP fluorescence polarization, Tamra-PKAtide substrate); assay type: biochemical; settings: 26 nM enzyme, 50 μM ATP, 100 nM Tamra-PKAtide, 2 hours at room temperature
T1 construct: purchased Invitrogen pv3970
Protocol: (§1) An in vitro assay was developed that utilizes recombinant Aurora A or Aurora B as an enzyme source and a peptide based on PKA as the substrate.
[…] kinase assays were performed in low protein binding 384-well plates (Corning Inc). All reagents were thawed on ice. Compounds were diluted in 100% DMSO to desirable concentrations. Each reaction consisted of 26 nM enzyme (Aurora B, Invitrogen cat#pv3970), 100 nM Tamra-PKAtide (Molecular Devices, 5TAMRA-GRTGRRNSICOOH), 50 μM ATP (Roche), 1 mM DTT (Pierce), and kinase buffer (10 mM Tris, 10 mM MgCl2, 0.01% Tween 20). For each reaction, 14 μl containing TAMRA-PKAtide, ATP, DTT and kinase buffer were combined with 1 μl diluted compound. The kinase reaction was started by the addition of 5 μl diluted enzyme. The reaction was allowed to run for 2 hours at room temperature. The reaction was stopped by adding 60 μl IMAP beads (1:400 beads in progressive (94.7% buffer A: 5.3% buffer B) 1× buffer, 24 mM NaCl). After an additional 2 hours, fluorescent polarization was measured using an Analyst AD (Molecular devices).
(§2) Dose-response curves were plotted from inhibition data generated each in duplicate, from 8 point serial dilutions of inhibitory compounds. Concentration of compound was plotted against kinase activity, calculated by degree of fluorescent polarization. To generate IC50 values, the dose-response curves were then fitted to a standard sigmoidal curve and IC50 values were derived by nonlinear regression analysis.

recombinant Aurora A = target: T2, recombinant Aurora A (Homo sapiens, UniProt O14965); experiment: Aurora A enzyme assay (IMAP fluorescence polarization, Tamra-PKAtide substrate); assay type: biochemical; settings: 8 nM enzyme, 25 μM ATP, 100 nM Tamra-PKAtide, 2 hours at room temperature
T2 construct: purchased Upstate 14-511
T2 sequence (O14965 1-403): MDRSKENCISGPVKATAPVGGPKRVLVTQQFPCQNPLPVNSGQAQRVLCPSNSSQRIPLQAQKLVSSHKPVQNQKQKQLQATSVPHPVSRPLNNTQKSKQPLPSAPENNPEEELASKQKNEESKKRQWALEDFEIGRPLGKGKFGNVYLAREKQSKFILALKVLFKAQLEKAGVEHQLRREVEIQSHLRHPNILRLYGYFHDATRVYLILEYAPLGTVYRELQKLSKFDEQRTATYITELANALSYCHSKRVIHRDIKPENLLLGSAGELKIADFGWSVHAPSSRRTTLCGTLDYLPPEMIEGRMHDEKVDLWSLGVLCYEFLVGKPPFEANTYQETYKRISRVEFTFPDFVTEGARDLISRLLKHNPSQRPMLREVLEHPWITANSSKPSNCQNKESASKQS
Protocol: as §1
Aurora A kinase assays were performed in low protein binding 384-well plates (Corning Inc). All reagents were thawed on ice. Compounds were diluted in 100% DMSO to desirable concentrations. […] For each reaction, 14 μl containing TAMRA-PKAtide, ATP, DTT and kinase buffer were combined with 1 μl diluted compound. The kinase reaction was started by the addition of 5 μl diluted enzyme. The reaction was allowed to run for 2 hours at room temperature. […] After an additional 2 hours, fluorescent polarization was measured using an Analyst AD (Molecular devices).
as §2

T1 sequence (Q96GD4 whole entry): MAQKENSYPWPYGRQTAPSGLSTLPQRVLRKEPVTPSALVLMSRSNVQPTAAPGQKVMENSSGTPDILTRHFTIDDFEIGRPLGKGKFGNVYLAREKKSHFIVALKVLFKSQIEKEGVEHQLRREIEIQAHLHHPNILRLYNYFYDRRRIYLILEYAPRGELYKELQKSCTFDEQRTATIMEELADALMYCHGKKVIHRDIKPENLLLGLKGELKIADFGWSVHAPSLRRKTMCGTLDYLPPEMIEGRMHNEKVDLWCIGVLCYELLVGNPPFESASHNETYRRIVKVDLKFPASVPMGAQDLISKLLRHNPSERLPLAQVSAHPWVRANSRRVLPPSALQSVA

Cc1cc(Nc2nc(Sc3ccncc3)cn3c(-c4cn[nH]c4)cnc23)sn1 [Example 4-21]
pIC50 (recombinant Aurora B): 6.55

Cc1cc(Nc2nc(Sc3ccccn3)cn3c(-c4cn[nH]c4)cnc23)sn1 [Example 4-5]
pIC50 (recombinant Aurora B): 6.36

Cc1cc(Nc2nc(Sc3ncc[nH]3)cn3c(-c4cn[nH]c4)cnc23)sn1 [Example 4-23]
pIC50 (recombinant Aurora B): 7.18

CNC(=O)CSc1cn2c(-c3cn[nH]c3)cnc2c(Nc2cc(C)ns2)n1 [Example 4-6]
pIC50 (recombinant Aurora B): 7.82

COc1ccc(Sc2cn3c(-c4cn[nH]c4)cnc3c(Nc3cc(C)ns3)n2)cc1 [Example 4-12]
pIC50 (recombinant Aurora B): 7.62

COc1ccccc1Sc1cn2c(-c3cn[nH]c3)cnc2c(Nc2cc(C)ns2)n1 [Example 4-10]
pIC50 (recombinant Aurora A): 7.13
pIC50 (recombinant Aurora B): 7.62

CSc1cn2c(-c3cc[nH]n3)cnc2c(Nc2cc(C)ns2)n1 [Example 4-27]
pIC50 (recombinant Aurora A): 6.16
pIC50 (recombinant Aurora B): 6.65

Cc1cc(Nc2nc(Sc3ccccc3Cl)cn3c(-c4cn[nH]c4)cnc23)sn1 [Example 4-4]
pIC50 (recombinant Aurora A): 6.22
pIC50 (recombinant Aurora B): 6.35

Cc1cc(Nc2nc(Sc3cccc(Cl)c3)cn3c(-c4cn[nH]c4)cnc23)sn1 [Example 4-20]
pIC50 (recombinant Aurora B): 8.00

Cc1cc(Nc2nc(SCC(C)O)cn3c(-c4cn[nH]c4)cnc23)sn1 (centres unmarked) [Example 4-18]
pIC50 (recombinant Aurora B): 8.05

Cc1cc(Nc2nc(Sc3ccc(Cl)cc3)cn3c(-c4cn[nH]c4)cnc23)sn1 [Example 4-13]
pIC50 (recombinant Aurora B): 6.21

Cc1cc(Nc2nc(Sc3nccs3)cn3c(-c4cn[nH]c4)cnc23)sn1 [Example 4-22]
pIC50 (recombinant Aurora B): 8.15

Cc1cc(Nc2nc(Sc3ncn[nH]3)cn3c(-c4cn[nH]c4)cnc23)sn1 [Example 4-24]
pIC50 (recombinant Aurora B): 7.46

Cc1cc(Nc2nc(SC3CC3)cn3c(-c4cn[nH]c4)cnc23)sn1 [Example 4-25]
pIC50 (recombinant Aurora B): > 6.00

CC(=O)Nc1ccc(Sc2cn3c(-c4cn[nH]c4)cnc3c(Nc3cc(C)ns3)n2)cc1 [Example 4-14]
pIC50 (recombinant Aurora A): 8.05
pIC50 (recombinant Aurora B): 8.40

Cc1cc(Nc2nc(Sc3ccc(NC(=O)C4CC4)cc3)cn3c(-c4cn[nH]c4)cnc23)sn1 [Example 4-19]
pIC50 (recombinant Aurora A): 7.60
pIC50 (recombinant Aurora B): 7.17

COc1cccc(Sc2cn3c(-c4cn[nH]c4)cnc3c(Nc3cc(C)ns3)n2)c1 [Example 4-11]
pIC50 (recombinant Aurora A): 7.30
pIC50 (recombinant Aurora B): 6.94

CSc1cn2c(-c3cccc(C)c3)cnc2c(Nc2cc(C)ns2)n1 [Example 4-32]
pIC50 (recombinant Aurora A): 4.85
pIC50 (recombinant Aurora B): < 5.52

Cc1cc(Nc2nc(Sc3nc4ccccc4s3)cn3c(-c4cn[nH]c4)cnc23)sn1 [Example 4-1]
pIC50 (recombinant Aurora A): 6.18

CSc1cn2c(-c3ccco3)cnc2c(Nc2cc(C)ns2)n1 [Example 4-30]
pIC50 (recombinant Aurora A): 5.60
pIC50 (recombinant Aurora B): 5.88

Cc1cc(Nc2nc(SC3CCNC3)cn3c(-c4cnn(C)c4)cnc23)sn1 (centres unmarked) [Example 4-26]
pIC50 (recombinant Aurora A): < 5.30
pIC50 (recombinant Aurora B): < 5.52

CSc1cn2c(-c3cc(C4CC4)[nH]n3)cnc2c(Nc2cc(C)ns2)n1 [Example 4-28]
pIC50 (recombinant Aurora A): 4.78
pIC50 (recombinant Aurora B): < 5.52

CSc1cn2c(-c3cn[nH]c3)cnc2c(Nc2cc(C)ns2)n1 [Example 4-3]
pIC50 (recombinant Aurora B): 7.96

CNc1ncc(-c2cnc3c(Nc4cc(C)ns4)nc(SC)cn23)s1 [Example 4-31]
pIC50 (recombinant Aurora A): 5.12
pIC50 (recombinant Aurora B): 6.15
